In PMC4503722, “Novel Phenotypic Outcomes Identified for a Public Collection of Approved Drugs from a Publicly Accessible Panel of Assays” (PLoS ONE, 2015):

Legend:
HeLa cells = assay: cells; format: cell-based; settings: for Hela CellCycMod PI 2N IC50/EC50: assay number 14; for Hela CellCycMod PI 4N IC50/EC50: assay number 16; for Hela CellCycMod PI MI IC50/EC50: assay number 17; for Hela CellCycMod PI Cell Number IC50/EC50: assay number 18
SNU-C1 = assay: cells; format: cell-based; settings: for Basal_Viability ATP SNU-C1 IC50/EC50: assay number 30
RKO = assay: cells; format: cell-based; settings: for Basal_Viability ATP RKO IC50/EC50: assay number 29
hJAK2 = biological target: T1, hJAK2 (Homo sapiens, UniProt O60674); assay: Cerep LANCE kinase assay hJAK2 (S1 assay 33); format: biochemical; settings: for hJAK2 LANCE IC50/EC50: assay number 33
T1 construct: purchased Cerep (LANCE kinase assay platform, contract assay)
T1 sequence (O60674 whole entry): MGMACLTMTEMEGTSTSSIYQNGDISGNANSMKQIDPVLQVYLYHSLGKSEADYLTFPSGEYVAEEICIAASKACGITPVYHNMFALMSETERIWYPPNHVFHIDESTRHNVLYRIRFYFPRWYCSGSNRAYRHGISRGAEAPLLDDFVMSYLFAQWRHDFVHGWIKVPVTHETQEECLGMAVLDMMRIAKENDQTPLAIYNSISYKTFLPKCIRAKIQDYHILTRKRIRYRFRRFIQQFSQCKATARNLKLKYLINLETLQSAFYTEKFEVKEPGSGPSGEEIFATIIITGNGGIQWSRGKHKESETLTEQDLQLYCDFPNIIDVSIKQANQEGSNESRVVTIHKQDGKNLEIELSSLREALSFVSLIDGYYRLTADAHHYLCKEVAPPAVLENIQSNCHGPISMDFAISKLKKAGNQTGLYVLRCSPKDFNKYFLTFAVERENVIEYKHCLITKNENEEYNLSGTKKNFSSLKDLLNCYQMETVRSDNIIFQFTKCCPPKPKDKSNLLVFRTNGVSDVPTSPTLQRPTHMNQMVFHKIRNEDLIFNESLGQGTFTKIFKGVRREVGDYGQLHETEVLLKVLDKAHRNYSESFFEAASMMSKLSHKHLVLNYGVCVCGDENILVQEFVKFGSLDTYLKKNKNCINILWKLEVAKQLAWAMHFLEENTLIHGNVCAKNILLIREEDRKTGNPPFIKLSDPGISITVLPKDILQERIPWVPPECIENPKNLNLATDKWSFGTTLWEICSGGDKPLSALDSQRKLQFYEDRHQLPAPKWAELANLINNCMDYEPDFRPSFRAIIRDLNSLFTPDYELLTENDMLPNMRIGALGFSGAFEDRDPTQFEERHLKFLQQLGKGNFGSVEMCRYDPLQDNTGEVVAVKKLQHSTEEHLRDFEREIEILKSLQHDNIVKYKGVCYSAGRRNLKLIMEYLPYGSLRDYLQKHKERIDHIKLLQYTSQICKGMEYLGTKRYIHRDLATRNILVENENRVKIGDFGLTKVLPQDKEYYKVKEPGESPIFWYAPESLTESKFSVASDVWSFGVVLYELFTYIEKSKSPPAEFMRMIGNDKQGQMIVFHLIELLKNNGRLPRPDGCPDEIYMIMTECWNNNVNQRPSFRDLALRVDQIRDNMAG

[1] = tested on: nuclear β-catenin in C2C12 cells; assay: cells; format: cell-based; settings: concentration response; for WntCondMedia_bCatenin C2C12 IC50/EC50: assay number 5
SW480 = assay: cells; format: cell-based; settings: for Basal_Viability ATP SW480 IC50/EC50: assay number 24
hGSK3b = biological target: T2, hGSK3b (Homo sapiens, UniProt P49841); assay: Cerep LANCE kinase assay hGSK3b (S1 assay 34); format: biochemical; settings: for hGSK3b LANCE IC50/EC50: assay number 34
T2 construct: purchased Cerep (LANCE kinase assay platform, contract assay)
T2 sequence (P49841 whole entry): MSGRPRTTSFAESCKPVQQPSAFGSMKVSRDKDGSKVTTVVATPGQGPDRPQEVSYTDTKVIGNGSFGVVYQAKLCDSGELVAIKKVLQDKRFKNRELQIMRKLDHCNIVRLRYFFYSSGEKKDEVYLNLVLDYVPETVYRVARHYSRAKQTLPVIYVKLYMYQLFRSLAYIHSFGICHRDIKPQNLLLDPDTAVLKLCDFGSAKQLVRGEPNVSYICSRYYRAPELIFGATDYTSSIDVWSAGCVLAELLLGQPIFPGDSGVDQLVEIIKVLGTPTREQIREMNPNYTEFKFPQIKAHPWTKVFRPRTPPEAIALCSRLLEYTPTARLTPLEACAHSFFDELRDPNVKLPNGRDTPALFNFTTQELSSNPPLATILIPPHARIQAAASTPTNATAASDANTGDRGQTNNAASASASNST

hp70S6K1 (RPS6KB1) = biological target: T3, hp70S6K1 (RPS6KB1) (Homo sapiens, UniProt P23443); assay: Cerep LANCE kinase assay hp70S6K1 (S1 assay 31); format: biochemical; settings: for hp70S6K1 LANCE IC50/EC50: assay number 31
T3 construct: purchased Cerep (LANCE kinase assay platform, contract assay)
T3 sequence (P23443 whole entry): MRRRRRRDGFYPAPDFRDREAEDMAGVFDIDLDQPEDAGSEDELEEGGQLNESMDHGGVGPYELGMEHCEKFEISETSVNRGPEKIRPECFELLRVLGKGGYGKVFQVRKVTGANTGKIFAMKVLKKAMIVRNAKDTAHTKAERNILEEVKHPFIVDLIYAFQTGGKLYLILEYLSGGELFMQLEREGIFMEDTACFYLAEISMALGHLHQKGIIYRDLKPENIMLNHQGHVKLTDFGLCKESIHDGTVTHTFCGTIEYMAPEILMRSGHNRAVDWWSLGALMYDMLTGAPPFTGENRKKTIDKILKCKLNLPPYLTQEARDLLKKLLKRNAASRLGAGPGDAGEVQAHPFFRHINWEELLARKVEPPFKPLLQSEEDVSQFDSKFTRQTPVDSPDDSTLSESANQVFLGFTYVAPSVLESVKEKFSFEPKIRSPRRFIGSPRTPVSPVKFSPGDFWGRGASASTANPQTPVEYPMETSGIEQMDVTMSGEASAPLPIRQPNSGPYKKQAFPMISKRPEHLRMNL

[2] = tested on: HCT116 cells treated with a GSK3β inhibitor; assay: cells; format: cell-based; settings: for GSK3b inh pretreated_Viability ATP HCT116 IC50/EC50: assay number 26, GSK3b inhibitor pretreated
DLD-1 = assay: cells; format: cell-based; settings: for Basal_Viability ATP DLD-1 IC50/EC50: assay number 23
hKDR = biological target: T4, hKDR (Homo sapiens, UniProt P35968); assay: Cerep LANCE kinase assay hKDR (S1 assay 32); format: biochemical; settings: for hKDR LANCE IC50/EC50: assay number 32
T4 construct: purchased Cerep (LANCE kinase assay platform, contract assay)
T4 sequence (P35968 20-1356): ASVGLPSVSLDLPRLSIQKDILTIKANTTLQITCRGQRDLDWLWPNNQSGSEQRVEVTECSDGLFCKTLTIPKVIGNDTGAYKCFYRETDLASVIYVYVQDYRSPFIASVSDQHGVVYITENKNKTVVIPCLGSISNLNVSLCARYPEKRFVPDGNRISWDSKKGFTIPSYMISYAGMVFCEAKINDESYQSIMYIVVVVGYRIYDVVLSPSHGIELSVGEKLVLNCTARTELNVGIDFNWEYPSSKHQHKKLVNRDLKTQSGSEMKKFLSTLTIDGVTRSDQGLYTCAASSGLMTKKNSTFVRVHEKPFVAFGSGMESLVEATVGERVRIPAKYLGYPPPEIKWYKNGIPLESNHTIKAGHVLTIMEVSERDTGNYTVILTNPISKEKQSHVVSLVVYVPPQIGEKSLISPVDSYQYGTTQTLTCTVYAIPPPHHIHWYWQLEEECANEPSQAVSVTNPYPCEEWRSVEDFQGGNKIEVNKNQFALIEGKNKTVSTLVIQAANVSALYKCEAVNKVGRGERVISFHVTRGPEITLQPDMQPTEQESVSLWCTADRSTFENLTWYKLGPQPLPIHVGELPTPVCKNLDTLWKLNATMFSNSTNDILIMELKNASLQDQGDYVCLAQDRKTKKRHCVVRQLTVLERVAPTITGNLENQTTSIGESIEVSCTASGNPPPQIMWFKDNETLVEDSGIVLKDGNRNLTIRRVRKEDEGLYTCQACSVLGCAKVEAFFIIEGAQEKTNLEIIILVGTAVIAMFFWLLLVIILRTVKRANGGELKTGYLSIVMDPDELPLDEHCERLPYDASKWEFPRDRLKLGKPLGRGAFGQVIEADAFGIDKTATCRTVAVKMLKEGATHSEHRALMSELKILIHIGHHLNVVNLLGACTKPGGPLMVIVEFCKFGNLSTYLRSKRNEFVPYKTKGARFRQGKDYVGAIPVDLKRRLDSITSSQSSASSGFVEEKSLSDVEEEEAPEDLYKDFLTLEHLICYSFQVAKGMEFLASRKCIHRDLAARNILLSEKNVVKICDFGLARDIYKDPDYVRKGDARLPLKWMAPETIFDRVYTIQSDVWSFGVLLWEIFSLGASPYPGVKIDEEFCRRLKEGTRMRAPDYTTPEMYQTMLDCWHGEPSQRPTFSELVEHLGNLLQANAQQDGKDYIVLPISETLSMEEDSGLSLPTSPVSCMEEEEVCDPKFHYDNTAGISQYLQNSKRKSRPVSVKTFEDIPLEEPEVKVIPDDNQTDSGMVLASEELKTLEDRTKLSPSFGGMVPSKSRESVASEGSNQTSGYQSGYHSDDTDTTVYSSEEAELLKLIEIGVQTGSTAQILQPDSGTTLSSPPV

[3] = tested on: alkaline phosphatase (ALP) activity in C2C12 cells; format: cell-based; settings: concentration response; for WntCondMedia_Alk Phos C2C12 IC50/EC50: assay number 6
[4] = tested on: endothelial tube formation in co-cultures of ECFCs and ADSCs treated with VEGF; assay: cells; format: cell-based, human
Colo320 = assay: cells; format: cell-based; settings: for Basal_Viability ATP Colo 320 IC50/EC50: assay number 27
HT-29 = assay: cells; format: cell-based; settings: for Basal_Viability ATP HT-29 IC50/EC50: assay number 28
hFLT3 = biological target: T5, hFLT3 (Homo sapiens, UniProt P36888); assay: Cerep LANCE kinase assay hFLT3 (S1 assay 35); format: biochemical; settings: for hFLT3 LANCE IC50/EC50: assay number 35
T5 construct: purchased Cerep (LANCE kinase assay platform, contract assay)
T5 sequence (P36888 27-993): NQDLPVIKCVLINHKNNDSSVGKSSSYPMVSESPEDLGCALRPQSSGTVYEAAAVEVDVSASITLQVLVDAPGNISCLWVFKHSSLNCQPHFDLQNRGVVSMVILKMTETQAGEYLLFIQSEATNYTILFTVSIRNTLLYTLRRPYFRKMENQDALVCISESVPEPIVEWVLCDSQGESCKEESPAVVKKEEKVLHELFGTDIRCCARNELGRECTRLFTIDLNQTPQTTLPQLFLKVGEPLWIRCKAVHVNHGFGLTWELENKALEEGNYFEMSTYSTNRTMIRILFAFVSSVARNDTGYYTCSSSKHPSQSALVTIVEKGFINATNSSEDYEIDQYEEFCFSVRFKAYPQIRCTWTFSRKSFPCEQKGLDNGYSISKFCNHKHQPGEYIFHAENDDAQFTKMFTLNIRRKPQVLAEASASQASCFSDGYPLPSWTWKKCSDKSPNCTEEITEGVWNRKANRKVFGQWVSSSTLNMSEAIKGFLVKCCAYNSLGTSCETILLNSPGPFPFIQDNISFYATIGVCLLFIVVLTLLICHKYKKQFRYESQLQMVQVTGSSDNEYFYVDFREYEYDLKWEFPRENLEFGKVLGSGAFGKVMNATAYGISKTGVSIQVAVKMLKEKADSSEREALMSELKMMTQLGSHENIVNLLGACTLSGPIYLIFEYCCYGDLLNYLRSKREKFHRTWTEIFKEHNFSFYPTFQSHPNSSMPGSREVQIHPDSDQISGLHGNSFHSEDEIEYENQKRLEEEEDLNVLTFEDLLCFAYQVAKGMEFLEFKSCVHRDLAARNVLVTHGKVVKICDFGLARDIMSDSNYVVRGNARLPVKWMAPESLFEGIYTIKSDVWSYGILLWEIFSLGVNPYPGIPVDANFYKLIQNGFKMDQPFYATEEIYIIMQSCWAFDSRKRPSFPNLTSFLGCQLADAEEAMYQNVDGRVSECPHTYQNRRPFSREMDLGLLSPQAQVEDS

HCT116 = assay: cells; format: cell-based; settings: basal; for Basal_Viability ATP HCT116 IC50/EC50: assay number 25
[5] = tested on: ECFC/ADSC co-culture cell nuclei number

## COCc1c(C(C)C)nc(C(C)C)c(/C=C/[C@@H](O)C[C@@H](O)CC(=O)[O-])c1-c1ccc(F)cc1.[Na+] [NCGC00164625-04]
HeLa cells; 2N
  Hela CellCycMod PI 2N IC50/EC50: > 10 µM
HeLa cells; assay number 15, S phase
  Hela CellCycMod PI S Phase IC50/EC50: > 10 µM
HeLa cells; 4N
  Hela CellCycMod PI 4N IC50/EC50: > 10 µM
HeLa cells; MI
  Hela CellCycMod PI MI IC50/EC50: > 10 µM
HeLa cells
  Hela CellCycMod PI Cell Number IC50/EC50: > 10 µM
SNU-C1; basal
  Basal_Viability ATP SNU-C1 IC50/EC50: 1.8733 µM
RKO; basal
  Basal_Viability ATP RKO IC50/EC50: 1.013 µM
hJAK2
  hJAK2 LANCE IC50/EC50: > 20 µM
[1]
  WntCondMedia_bCatenin C2C12 IC50/EC50: > 6.667 µM
SW480; basal
  Basal_Viability ATP SW480 IC50/EC50: 0.1433 µM
hGSK3b
  hGSK3b LANCE IC50/EC50: > 20 µM
hp70S6K1 (RPS6KB1)
  hp70S6K1 LANCE IC50/EC50: > 20 µM
[2]
  GSK3b inh pretreated_Viability ATP HCT116 IC50/EC50: 0.05291 µM
DLD-1; basal
  Basal_Viability ATP DLD-1 IC50/EC50: 2.507 µM
hKDR
  hKDR LANCE IC50/EC50: > 20 µM
[3]
  WntCondMedia_Alk Phos C2C12 IC50/EC50: > 20 µM
[4]
  VEGF_ADSC\ECFC Angio CD31 TubeArea IC50/EC50: 0.0894 µM
Colo320; basal
  Basal_Viability ATP Colo 320 IC50/EC50: 1.924 µM
HT-29; basal
  Basal_Viability ATP HT-29 IC50/EC50: 1.212 µM
hFLT3
  hFLT3 LANCE IC50/EC50: > 20 µM
HCT116
  Basal_Viability ATP HCT116 IC50/EC50: 0.2403 µM
[5]
  VEGF_ADSC\ECFC Angio Hoechst NucArea IC50/EC50: 0.259 µM

## O=c1c(-c2ccccc2)c1-c1ccccc1 [NCGC00166113-04]
HeLa cells; 2N
  IC50/EC50, Hela CellCycMod PI 2N (assay number 14): > 10 µM
HeLa cells; 4N
  IC50/EC50, Hela CellCycMod PI 4N (assay number 16): > 10 µM
HeLa cells; Cell Number
  IC50/EC50, Hela CellCycMod PI Cell Number (assay number 18): 1.6859 µM
HeLa cells; MI
  IC50/EC50, Hela CellCycMod PI MI (assay number 17): > 10 µM
SNU-C1; basal
  IC50/EC50, Basal_Viability ATP SNU-C1 (assay number 30): > 20 µM
RKO; basal
  IC50/EC50, Basal_Viability ATP RKO (assay number 29): > 20 µM
hJAK2
  IC50/EC50, hJAK2 LANCE (assay number 33): > 20 µM
[1]
  IC50/EC50, WntCondMedia_bCatenin C2C12 (assay number 5): > 20 µM
SW480; basal
  IC50/EC50, Basal_Viability ATP SW480 (assay number 24): > 20 µM
hGSK3b
  IC50/EC50, hGSK3b LANCE (assay number 34): > 20 µM
hp70S6K1 (RPS6KB1)
  IC50/EC50, hp70S6K1 LANCE (assay number 31): > 20 µM
[2]; GSK3b inh pretreated
  IC50/EC50, GSK3b inh pretreated_Viability ATP HCT116 (assay number 26): 7.707 µM
DLD-1; basal
  IC50/EC50, Basal_Viability ATP DLD-1 (assay number 23): 4.208 µM
hKDR
  IC50/EC50, hKDR LANCE (assay number 32): > 20 µM
[3]
  IC50/EC50, WntCondMedia_Alk Phos C2C12 (assay number 6): 3.6201 µM
[4]
  IC50/EC50, VEGF_ADSC\ECFC Angio CD31 TubeArea (assay number 2): 3.8353 µM
Colo320; basal
  IC50/EC50, Basal_Viability ATP Colo 320 (assay number 27): 3.1012 µM
HT-29; basal
  IC50/EC50, Basal_Viability ATP HT-29 (assay number 28): > 20 µM
hFLT3
  IC50/EC50, hFLT3 LANCE (assay number 35): > 20 µM
HCT116
  IC50/EC50, Basal_Viability ATP HCT116 (assay number 25): > 20 µM
[5]
  IC50/EC50, VEGF_ADSC\ECFC Angio Hoechst NucArea (assay number 3): 6.7548 µM

## Cc1nc2ccc(CN(C)c3ccc(C(=O)N[C@@H](CCC(=O)O)C(=O)O)s3)cc2c(=O)[nH]1 [NCGC00229704-01]
HeLa cells; 2N
  Hela CellCycMod PI 2N IC50/EC50: > 10 µM
HeLa cells; 4N
  Hela CellCycMod PI 4N IC50/EC50: > 10 µM
HeLa cells; MI
  Hela CellCycMod PI MI IC50/EC50: > 10 µM
HeLa cells
  Hela CellCycMod PI Cell Number IC50/EC50: > 10 µM
SNU-C1
  Basal_Viability ATP SNU-C1 IC50/EC50: > 20 µM
RKO
  Basal_Viability ATP RKO IC50/EC50: 0.00288 µM
hJAK2
  hJAK2 LANCE IC50/EC50: > 20 µM
[1]
  WntCondMedia_bCatenin C2C12 IC50/EC50: 0.0127 µM
SW480
  Basal_Viability ATP SW480 IC50/EC50: 0.001 µM
hGSK3b
  hGSK3b LANCE IC50/EC50: 3.99 µM
hp70S6K1 (RPS6KB1)
  hp70S6K1 LANCE IC50/EC50: > 20 µM
[2]
  GSK3b inh pretreated_Viability ATP HCT116 IC50/EC50: 0.0023 µM
DLD-1
  Basal_Viability ATP DLD-1 IC50/EC50: > 20 µM
hKDR
  hKDR LANCE IC50/EC50: > 20 µM
[3]
  WntCondMedia_Alk Phos C2C12 IC50/EC50: 0.0042 µM
[4]
  VEGF_ADSC\ECFC Angio CD31 TubeArea IC50/EC50: 0.3544 µM
Colo320
  Basal_Viability ATP Colo 320 IC50/EC50: > 20 µM
HT-29
  Basal_Viability ATP HT-29 IC50/EC50: > 20 µM
hFLT3
  hFLT3 LANCE IC50/EC50: > 20 µM
HCT116
  Basal_Viability ATP HCT116 IC50/EC50: 0.00424 µM
[5]
  VEGF_ADSC\ECFC Angio Hoechst NucArea IC50/EC50: > 10 µM
